Here are results for six compounds from patent US20150306232A1, “HYDROGELATORS COMPRISING D-AMINO ACIDS” (BRANDEIS UNIVERSITY, priority 2012, published 2015).

Residues, ends and D or L forms follow the SMILES beside them. *: point of attachment. Naproxen = COc1ccc2cc([C@H](C)C(=O)*)ccc2c1

Series [1] has as its system HeLa cells. The series is described as follows: live cell imaging of intracellular self-assembly. The format is cell-based. To be noted: 500 μM. As for the experimental part: We seeded 2×10^5 of HeLa cells in Glass Chamber (Thermo Scientific Nunc Lab-Tek, 2-well) with MEM medium (2 mL) that was supplemented with 10% FBS, 100 U/mL penicillin and 100 mg mL 21 streptomycin for 4 h to allow the cell attachment. In order to perform the PTP1B Inhibition assay, we then replaced the culture medium in both wells and re-incubated the cells for 1 h, for which one-half of the wells was incubated in the medium containing 25 μM CinnGEL 2Me (novel inhibitor of PTP1B, prepared by reconstitution in DMSO), other well as a control was in the culture medium plus the same volume of DMSO. Ishino, Y.; et al. Mol. Vis. 2008, 14, 61. After that, we replaced the medium and washed the HeLa cells with PBS buffer for three times. Then we fixed the cell containing glass chamber on the confocal microscope stage, and replaced the PBS buffer with 1 mL solution of our fluorescent hydrogelators (500 μM, dissolved in PBS buffer) for each well. The sample we added into the PTP1B inhibition well also contained 25 μM of CinnGEL 2Me. Thereafter fluorescent images were captured immediately in the xyt mode with a delay of 11.64 s between frames.

The subject of the next series is ALP. Description: enzymatic dephosphorylation followed by 31P NMR. The format is biochemical. To be noted: 1.0 wt %, 0.02 U/mL ALP, pH 7.6, 25° C. As for the experimental part: To evaluate the rate of enzymatic hydrogelation process, we used ^31P NMR and rheology to study the transformation of the precursors 11a and 11b upon the treatment of ALP (FIG. 26). We first dissolved 10 mg of 11a and 11b into 1.0 mL of water at pH 7.6, respectively, to afford clear solutions with concentrations of 1.0 wt %. Once adding 0.02 U/mL of alkaline phosphates, we immediately monitored the solutions of 11a and 11b by ^31P NMR and oscillatory rheology at 25° C. The ^31P NMR spectra at 3 min, 1 h, 2 h, 4 h, 6 h, 8 h, 10 h, 12 h, 14 h, 18 h, 24 h, and 48 h indicate that the phosphate groups on the L-tyrosine of 11a and D-tyrosine 11b (δ=−2.7) become free phosphates (δ=0.0) at almost same rate, and dephosphorylation finishes after 48 hours. […] FIGS. 26C and 26D display the time dependent rheology studies of 11a and 11b. At the beginning, values of G″ are higher than the values of G′ for the solutions of 11a and 11b, indicating both of them are fluids. However, as 11a and 11b slowly turn into hydrogelators 12a and 12b by enzymatic dephosphorylation, the solutions start to form solid-like hydrogels with values of G′ become higher than those of G″. The gelation points for 12a and 12b, at where G′s intersect with G″s, are both achieved around 5 hours after the addition of enzyme. […]

Series [2] can be described thus: enzymatic hydrogelation with ALP. The format is physicochemical. To be noted: 1.0 U/mL ALP, pH 7.6, 0.4-1.0 wt %. As for the experimental part: To investigate the enzymatic hydrogelation of the D-peptidic precursor 11b, we prepared a series of hydrogels formed by using ALP to treat 11b at different concentrations. After dissolving 1.0, 2.0, 3.0, 4.0, and 5.0 mg of 11b in 0.5 mL of water (pH 7.6), respectively, we obtained clear solutions of 11b with different concentrations. The treatment of the solutions of 11b with ALP (1.0 U/mL) afforded the molecules of hydrogelator 12b, which are less soluble than 11b and thus self-assemble in water to form hydrogels when the concentrations of 12b are sufficient.
All the compounds were dissolved in de-ionized water. We then adjusted pH of the solutions carefully adding 1 M of NaOH and 1 M of HCl and measured the values by pH paper (pH 6.0-8.0). After prepared clear weakly basic solutions (pH 7.6 or 7.4), we then formed the hydrogels by adding enzymes (alkaline phosphatase).

In a further series the target is T1, COX-1 (ovine) enzyme (Ovis aries, UniProt P05979).
T1 construct: purchased Cayman Chemical 700100
T1 sequence (P05979 25-600): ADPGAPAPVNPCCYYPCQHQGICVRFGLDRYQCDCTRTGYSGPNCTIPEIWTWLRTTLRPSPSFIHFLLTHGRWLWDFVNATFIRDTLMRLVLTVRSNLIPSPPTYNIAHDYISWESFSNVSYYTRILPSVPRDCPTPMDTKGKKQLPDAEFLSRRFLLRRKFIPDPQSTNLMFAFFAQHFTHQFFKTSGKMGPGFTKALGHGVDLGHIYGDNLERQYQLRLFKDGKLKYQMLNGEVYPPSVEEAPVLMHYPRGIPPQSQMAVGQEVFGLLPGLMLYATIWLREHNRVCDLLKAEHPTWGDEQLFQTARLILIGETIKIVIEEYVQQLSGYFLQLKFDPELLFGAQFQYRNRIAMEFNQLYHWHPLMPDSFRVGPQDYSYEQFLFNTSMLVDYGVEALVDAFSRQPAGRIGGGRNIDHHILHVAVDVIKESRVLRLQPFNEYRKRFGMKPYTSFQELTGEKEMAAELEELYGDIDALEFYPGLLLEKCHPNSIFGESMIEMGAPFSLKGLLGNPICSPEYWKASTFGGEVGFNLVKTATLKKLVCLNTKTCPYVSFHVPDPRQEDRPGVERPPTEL
The series is described as follows: COX Fluorescent Inhibitor Screening Assay, COX-1. Conditions: read-out: IC50 for inhibiting COX-1 enzyme. The format is biochemical. As for the experimental part: (§1) To study the drug efficacies of NSAID containing hydrogelators, here we used ‘COX Fluorescent Inhibitor Screening Assay Kit’ (700100; Cayman Chemical) to do in vitro inhibition assays for Npx and Npx containing hydrogelors 1, 2, 3, 4, 5, and 6. Each compound was tested by COX-1 (ovine) enzyme and COX-2 (human recombinant) enzyme separately in 96 well black assay plates. By utilizing the peroxidase component of COXs, we monitored the reaction between PGG2 and ADHP (10-acetyl-3,7-dihydroxyphenoxazine), which produced highly fluorescent compound resorufin. This resorufin can be easily analyzed by multimode detector with an excitation wavelength of 530-540 nm and an emission wavelength of 585-595 nm. All the compounds are assayed in triplicate. After the combination of 10 μl of inhibitors, 10 μl of Heme solution, 10 μL of fluorometric substrate, 10 μl of enzyme (either COX-1 or COX-2), and 150 μl of assay buffer, we quickly add 10 μl of arachidonic acid solution to initiate the reaction. Then we read the plate exactly after two minutes incubation at room temperature. In this experiment, we also measure the blank data without enzyme and inhibitors, and the control data without inhibitors. The IC50 values of these hydrogelators were read from their activity curves (FIG. 18), which were measured with 5 different concentrations of these hydrogelators (dissolved in DMSO).

In series [3] the target is T2, COX-2 (human recombinant) enzyme (Homo sapiens, UniProt P35354).
T2 construct: purchased Cayman Chemical 700100
T2 sequence (P35354 18-604): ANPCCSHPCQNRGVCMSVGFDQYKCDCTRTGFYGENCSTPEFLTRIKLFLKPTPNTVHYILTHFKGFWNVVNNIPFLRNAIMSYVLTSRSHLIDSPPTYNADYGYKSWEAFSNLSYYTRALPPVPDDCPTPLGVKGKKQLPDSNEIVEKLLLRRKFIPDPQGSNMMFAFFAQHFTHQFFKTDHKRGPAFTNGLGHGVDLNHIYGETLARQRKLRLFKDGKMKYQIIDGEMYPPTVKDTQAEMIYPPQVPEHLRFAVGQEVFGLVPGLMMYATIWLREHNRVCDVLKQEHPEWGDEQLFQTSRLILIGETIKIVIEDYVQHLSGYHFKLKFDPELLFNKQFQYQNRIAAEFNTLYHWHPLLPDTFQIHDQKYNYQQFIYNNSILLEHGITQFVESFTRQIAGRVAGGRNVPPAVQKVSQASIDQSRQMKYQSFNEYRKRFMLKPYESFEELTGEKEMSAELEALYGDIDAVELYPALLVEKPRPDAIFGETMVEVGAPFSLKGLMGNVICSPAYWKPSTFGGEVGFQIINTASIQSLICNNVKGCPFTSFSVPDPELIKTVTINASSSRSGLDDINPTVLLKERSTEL
The series is described as follows: COX Fluorescent Inhibitor Screening Assay, COX-2. The class given is biochemical. The protocol:
as §1

The test system of series [4] is HeLa cells. The series is described as follows: cells. To be noted: Homo sapiens, HeLa; 72 hours at 37° C., MTT; read-out: IC50, HeLa cell viability. The class given is cell-based. The protocol: We seeded […] (cells/well) of health HeLa cells into 96-well plate with 100 μL of MEM medium supplemented with 10% fetal bovine serum (FBS), 100 U/mL penicillin and 100 mg mL21 streptomycin. The incubation at 37° C. and 5% CO2 for 12 hours allowed HeLa cells to attach the bottom of 96-well plate. Then we replaced the medium by another 100 μL of growth medium that contained serial diluents of our compounds (0.5% DMSO) and then incubated the cells at 37° C. and 5% CO2 for additional 72 hours. During the measurement of proliferation for HeLa cells, which were assayed into three days, we added 10 μL of (3-(4,5-Dimethylthiazol-2-yl)-2,5-diphenyltetrazolium bromide (MTT, 0.5 mg/mL) into the assigned wells in their corresponding day every 24 hours, which was followed by adding 100 μL of 0.1% sodium dodecyl sulfate (SDS) 4 hours later. Then we collected the assay results after another 24 hours incubation. Since the mitochondrial reductase in living cells reduced MTT to purple fomazan, the absorbance at 595 nm of the whole solution was finally measured by DTX 880 Multimode Detector. With MEM medium as blank and untreated HeLa cells as control, we measure each concentration of these compounds in triplicate. The IC50 values of our hydrogelators were read from their activity curves (with the measurement of 8 different concentrations) in day 3.

The next series relates to 4T1-luciferase cells. The series is described as follows: in vivo evaluation of antitumor activity. Details: species or system Balb/c mice. To be noted: intravenous 4×10 mg/kg every other day from day 0. As for the experimental part: After inoculating female Balb/c mice with 2×10^5 of 4T1-luciferase cells in the mammary fat pad, we allow tumors grow until their sizes reach about 500 mm^3, and randomly divide them into different treatment groups: (1) intravenous injections of PBS vehicle control; (2) intravenous injection of 4×10 mg/kg Taxol® every other day from day 0 for indicated times; (3) a single intratumoral injection of 10 mg/kg Taxol containing hydrogels in 40 μL volume. With the treatments of 16 (Taxol; paclitaxel), 20a, 20b, or PBS buffer (control) for 14 days, we monitor the relative tumor sizes (calculated by the formula: tumor volume=length×width×(Length+Width)/2) and relative weights of mice every two days. […] Therefore, we have to divide 40 mg/kg of 16 into four injections with each injection of 10 mg/kg. […] This promising result warrants further investigation of the D-peptidic hydrogels of Taxol on animal models.
Female Balb/c mice were incubated with 2×10^5 4 T1-luciferase cells in the mammary fat pad. Tumor growth was monitored every other day and the tumor volume was calculated by the formula: length×width×(Length+Width)/2. Once tumors size reached around 500 mm^3, we randomly divided mice into different treatment groups. […] Mice weight was monitored after receiving treatment and presented as relative weight (%).

Series [5] is described as follows: toxicity and relative weight of treated mice. Conditions: single injection of 40 mg/kg, formulated with Cremophor EL, 40 mg/kg. The class given is in vivo, Balb/c mice.
The target in a further series is COX-2 (Homo sapiens, UniProt P35354). To be noted: read-out: reported IC50 of naproxen to COX-2; literature; cited from earlier work.

For “2-(Naphthalen-2-yl)acetyl-(D)-Phe-(D)-Phe-(D)-Lys(NBD)-(D)-Tyr phosphate [14b]”, the “time until fluorescence emerges” value in the series on HeLa cells [1] (with 25 μM CinnGEL 2Me (PTP1B inhibitor)) turned out to be 5 min. In the series on HeLa cells [1] (without PTP1B inhibitor), the “time until cells exhibit strong fluorescence” value amounted to 2 min.

For the compound “2-(Naphthalen-2-yl)acetyl-(D)-Phe-(D)-Phe-(D)-Lys-(D)-Tyr phosphate [11b]”, in the series on ALP, the “time at which dephosphorylation finishes” value stood at 48 h. In addition, the “time to form hydrogel after addition of ALP” value in series [2] is at most 24 h.

Consider “2-(Naphthalen-2-yl)acetyl-(L)-Phe-(L)-Phe-(L)-Lys-(L)-Tyr phosphate [11a, reference compound]”, for which the “time at which dephosphorylation finishes” value in the series on ALP came out at 48 h.

By IC50 is commonly meant the concentration at which inhibition is half-maximal. With `COc1ccc2cc([C@H](C)C(=O)N[C@@H](Cc3ccccc3)C(=O)N[C@@H](Cc3ccccc3)C(=O)N[C@@H](CCCCN)C(=O)N[C@@H](Cc3ccc(O)cc3)C(=O)O)ccc2c1` [L-4, Naproxen-L-Phe-L-Phe-L-Lys-L-Tyr, reference compound] (Naproxen-FFKY-OH), on COX-1 (ovine) enzyme, the IC50 was 115 µM. In addition, the “selectivity S for COX-2 (IC50 of COX-1/IC50 of COX-2)” value in series [3] was “about 3”.

As to `CC(=O)O[C@H]1C(=O)[C@@]2(C)[C@H]([C@H](OC(=O)c3ccccc3)[C@]3(O)C[C@H](OC(=O)[C@H](O)[C@@H](NC(=O)c4ccccc4)c4ccccc4)C(C)=C1C3(C)C)[C@]1(OC(C)=O)CO[C@@H]1C[C@@H]2O` [compound 16, paclitaxel], the IC50 in the series on HeLa cells [4] was 0.0458 µM. In addition, in the series on 4T1-luciferase cells, the “relative tumor size vs control” value was “smaller than those of the control group after day 8”. The lethality entry in series [5] (listed as Taxol) was “Mice died immediately”; in [5] (listed as Taxol®), “may cause the death of mouse immediately”.

In the case of `COc1ccc2cc([C@H](C)C(=O)O)ccc2c1` [naproxen], the concentration for half-maximal inhibition (IC50) on COX-2 is 2 to 28.4 µM.
